# “Also recorded” adds a separate entry of the source.
# Legend:
# [1] = test system: normal skin; test: pigmentogenic properties on normal skin; assay type: in vivo, human; conditions: 0.5%
# From the text: The pigmentogenic properties of products 1a and 1b have been tested on normal skin at a concentration of 0.5%.
# [2] = test system: DNA; test: thermal denaturation-renaturation of DNA modified in the presence of UVA; assay type: biochemical
# From the text: Experiments of thermal denaturation-renaturation carried out on the DNA Modified by the compound 1a in the presence of UVA (incident dose ranging up to 27 Kj/m2) yielding values of the non-renaturating fraction of 100%.
# [3] = test system: haploid strain of Saccharomyces cerevisiae yeast; test: induction of nuclear mutations: His+ reversions; assay type: cell-based; conditions: 5×10^-6 M, same survivor rate
# Procedure: (§1) This photobiological activity has in effect been defined by the induction of lethal effects, the induction of "small colony" cytoplasmic mutations (damage in the mitochondrial DNA) and the induction of nuclear mutations (reverse and forward). The experiments were conducted in the customary manner in conformity with the following references:
# The induction of nuclear mutations (reversions and "forward" mutations) has been determined according to procedures described in the above-mentioned articles.
# [4] = test system: yeast mutant pso2; test: sensitivity of yeast mutant pso2 versus wild type to photo-addition
# [5] = test system: synthesis of RNA; test: photosensitizer effect on RNA synthesis in human fibroblasts; assay type: cell-based; conditions: UVA 365 nm
# From the text: (§2) (F. Bordin, F. Baccichetti and L. Musajo, Experientia 28, 148 (1972)).
# (§3) The cells cultivated in Petri dishes having a minimum Eagle medium with 10% embryonic calf serum were marked by precursors which were specific to the exponential phase of growth. The rates of synthesis were estimated by measuring the incorporation of the radioactive precursors in the acid-precipitable material (see S. Nocentini, Biochim. Biophys., Acta 521, 160 (1978)).
# [6] = spectroscopic absorption properties; assay type: physicochemical; conditions: compared with psoralen
# From the text: Compounds 1a and 1b have similar spectroscopic properties which differ markedly with respect to those of psoralen.
# [7] = test system: DNA; test: complexation with DNA by absorption and emission spectroscopy; assay type: binding
# [8] = photochemical stability under ultraviolet irradiation; assay type: physicochemical; conditions: free in solution, ultraviolet irradiation up to an incident dose of 27 kJ/m2
# [9] = mutagenicity (general statements)
# [10] = test system: DNA of cells of the wild type; test: direct biochemical verification of cross-linking in DNA of cells treated and irradiated at 365 nm; assay type: cell-based, yeast
# From the text: Indeed, DNA of cells of the wild type were extracted immediately after treatment with products 1a, 1b at a concentration of 10^-5 M and irradiation with two doses of radiation at 365 nm (30% and 5% survival rate). […] If the DNA contains cross-links it renatures itself and is found in the double chain form separable by gradient density from single chain DNA.
# [11] = test system: Saccharomyces cerevisiae yeast; test: induction of lethal effects in yeast with 365 nm irradiation (UVA); assay type: cell-based
# Procedure: as §1
# Thus, the dose of UVA must be between 2.5 and 5 times weaker in the case of compounds 1a and 1b than in the case of 8-MOP to attain the same survival rate.
# [12] = test system: V79 chinese hamster cells; test: antiproliferatory effect: inhibition of colony formation of V79 cells; assay type: cell-based; conditions: 5×10^-6 M
# Procedure: The photobiological activity of the two monofunctional componds 1a and 1b have been studied in mammalian cells in vitro in order to determine their antiproliferatory effect.
# A diploid strain of V79 chinese hamster cells were used.
# The action of the compounds on cell survival (i.e. the antiproliferatory effect) was determined by measuring their power to inhibit the capacity of cells to form colonies. The technique used is that described by C.
# [13] = test system: DNA; test: photoaffinity for DNA in vivo; assay type: cell-based, yeast
# [14] = test system: DNA; test: formation of cross-links in DNA (general statements); assay type: biochemical; conditions: from induction of cytoplasmic and nuclear mutations
# [15] = test system: mitochondrial DNA; test: induction of "small colony" cytoplasmic mutations; assay type: cell-based, Saccharomyces cerevisiae; conditions: in 10% of the survivors
# Procedure: as §1
# If the induction of cytoplasmic mutations is considered as a function of the survivors, the compounds 1a and 1b which are monofunctional derivatives of psoralen, show in 10% of the survivors a rate of induction of cytoplasmic mutation greater than 50%.
# [16] = test system: Saccharomyces cerevisiae yeast; test: induction of forward mutations (resistance to canavanine); assay type: cell-based
# Procedure: as §1, with “references: […]” for “references:”
# [17] = test system: normal human skin; test: erythema test on normal human skin (forearm); assay type: in vivo
# Procedure: The clinical and therapeutic activity of compounds 1a and 1b has been also measured on human skin. 10 mg of compounds 1a and 1b were diluted in 2 g of a purified lanolin commercially available under the name ROC hydrocerine which was made liquid by heating to 60° C. This local preparation was first tested on normal human skin (of the forearm). An amount of 10 micrograms/cm2 of products 1a and 1b was applied to a circular cutaneous surface 3 cm in diameter. The two products were left on the skin for 2 hours to insure a sufficient cutaneous penetration. […] The same experiment was repeated a second time with irradiation of 20 J/cm2 through a glass plate in order to filter out all the ultraviolet B radiation. […] This erythema, slightly apparent, continued for 18 days. […] The […] result of the reflective photoplethysmograph were totally identical for products 1a and 1b. […] The […] only appeared in doses of irradiation where are twice that customarily used in a therapeutic treatment.
# [18] = test system: synthesis of DNA; test: photosensitizer effect on DNA synthesis in human fibroblasts; assay type: cell-based; conditions: UVA 365 nm
# From the text: as §2, §3
# [19] = test system: psoriatic plaque; test: therapeutic test on psoriatic plaque, products 1a and 1b; assay type: in vivo, human
# Procedure: 10 mg of compounds 1a and 1b were diluted in 2 g of a purified lanolin commercially available under the name ROC hydrocerine which was made liquid by heating to 60° C. Products 1a and 1b have also been tested in the same excipient on a high inflammatory psoriatic plaque. These two products were applied to surfaces having a 3 cm diameter. On a third surface the excipient alone was applied. […] The products and the lanolin alone were applied 2 hours before irradiation. […] This whitening was practically as fast in the zones treated with products 1a and 1b. The zone treated with lanolin alone remained unchanged.
# [20] = 10 micrograms/cm2, UVA 20 J/cm2
# [21] = 30 micrograms/cm2, by the tenth treatment
# [22] = 30 micrograms/cm2, from the fourth treatment
structure (smiles),measurement,setting,value
"O=c1oc2cc3occc3cc2c2ccncc12 [Compound 1a, Pyrido (3,4-c) furo (3,2-g) coumarin]","pigmentogenic properties, 1b versus 1a",[1],pigmentogenic
same,pigmentation of normal skin,"[1]; three normal patients, total UVA doses of 140 J/cm2","very slight pigmentation, hardly visible, in only two of the three patients"
same,induction of biadditions on the DNA,[2],cannot induce biadditions on the DNA
same,non-renaturating fraction,[2]; UVA incident dose ranging up to 27 kJ/m2,100%
same,His+ reversions rate compared with 3-CPs,[3],less than that observed after the treatment with 3-CPs
same,"His+ reversions rate compared with 8-MOP and 4,5',8-TMeP",[3],"very much less than that observed after treatment with the bifunctional agents 8-MOP and 4,5', 8-TMeP"
same,photoreactivity on yeast strains,[4],very photoreactive
same,sensitivity of pso2 mutant compared with wild type,[4]; photo-addition,same sensitivity as the wild type
same,inhibition capacity (RNA) compared with 3-CPs,[5],much more than 3-CPs
same,inhibition capacity (RNA) compared with 8-MOP,[5],slightly more powerful than 8-MOP
same,coefficient of molecular absorption at 365 nm,[6],notably a higher coefficient of molecular absorption at 365 nm
same,complexation with DNA,[7],considerable complexation
same,solubility in the DNA relative to mixture of alcohol and water,[7],at least 10 factor
same,photochemical stability,[8],good photochemical stability
same,mutagenicity compared with 3-carbethoxypsoralen (conclusion),[9],less mutagenic than 3-carbethoxypsoralen
same,form of DNA after renaturation (cross-links),"[10]; 10^-5 M, 365 nm, two doses (30% and 5% survival rate)",remains in single chain form after renaturation
same,functional type (mono/bifunctional),[10]; pso2 mutant and direct examination of DNA,mono functional type
same,"photoreactivity compared with 4,5',8-trimethylpsoralen (conclusion)",[11],"close to that of 4,5'-8-trimethylpsoralen"
same,induction of lethal effects compared with 8-MOP,"[11]; 5×10^-5 M, 365 nm (UVA)",activity close to that of 8-methoxypsoralen
same,activity on cell survival relative to 8-MOP,"[11]; 5×10^-6 M, survival curves",2.5 times
same,photodynamic activity (oxygen dependent) on induction of lethal damages,[11]; yeast,do not exert on the yeast photodynamic activity
same,LD10 (dose which leaves 10% survive),[12]; UVA,1800 J/cm2
same,considerable photosensitivity in V79 cells,[12]; UVA,considerable photosensitivity
same,relative antiproliferatory effect,[12]; UVA,"compared to 8-MOP, a higher antiproliferatory effect; also recorded: comparable to that of bifunctional furocoumarins"
same,diminution of cell survival in absence of radiation,[12]; no radiation,no diminution of cell survival
same,photoaffinity for DNA in vivo compared with 3-CPs,[13],makedly much high than that of monofunctional furocoumarin 3-CPs
same,photoaffinity for DNA in vivo relative to 8-MOP,[13],about 10 times
same,photoaffinity in respect to DNA compared with 8-MOP (conclusion),[13],markedly greater than that of 8-MOP
same,formation of cross-links in the DNA (conclusion),[14],incapable of forming cross-links in the DNA
same,rate of induction of cytoplasmic mutation,[15],greater than 50%
same,"forward mutations as a function of surviving fractions compared with 3-CPs, 8-MOP and 4,5',8-TMeP",[16],"markedly less mutagenic than 3-CPs and the bifunctional compounds 8-MOP and 4,5', 8-TMeP"
same,forward mutations as a function of UVA doses compared with 3-CPs,[16]; 5×10^-6 M versus 3-CPs at 5×10^-5 M,comparable to those obtained with 3-CPs at 5×10^-5 M
same,erythema at 5 J/cm2,"[17]; 10 micrograms/cm2, 2 hours before UVA 5 J/cm2",no precocious or delayed erythema was observed
same,duration of erythema,[17]; [20],18 days
same,time of appearance of erythema,[17]; [20],72 h
same,erythema at 20 J/cm2,"[17]; 10 micrograms/cm2, UVA 20 J/cm2 through glass plate",slight erythema
same,desquamation or local pain,[17]; UVA 20 J/cm2,no desquamation or local pain
same,systolic pulse of the capillaries at erythematic zones (reflective photoplethysmography),[17]; UVA 20 J/cm2,doubling of the systolic pulse
same,erythematogenicity (conclusion),[17]; in vivo,not erythmatogenic in conditions of irradiation customarily used in human therapy; also recorded: very mildly erythmatogenic
same,inhibition capacity (DNA) compared with 3-CPs,[18],much more than 3-CPs
same,inhibition capacity (DNA) compared with 8-MOP,[18],slightly more powerful than 8-MOP
same,"antipsoriatic action, third patient",[19]; 30 μg/cm2 two hours before UVA,did not have a detectable antipsoriatic action
same,erythema or secondary effect during treatments,[19]; 30 micrograms/cm2,no erythema or secondary effect was observed
same,hyperpigmentation,[19]; 30 micrograms/cm2,hyperpigmentation was found
same,total UVA dose to complete whitening,[19]; [21],50 J/cm2
same,whitening of treated zones,[19]; [21],complete whitening of the zones treated
same,decrease of squamae,[19]; [22],slight decrease of the squamae
same,reduction of infiltration,[19]; [22],tangible reduction of the infiltration
same,antipsoriatic activity (conclusion),[19]; applied locally,good antipsoriatic activity
